Measurements reported in ChEMBL document CHEMBL1201862, “PubChem BioAssay data set” (2004).
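All cell lines were grown in 96-well plates and treated with compound for 48 hours. GI50: concentration for 50% inhibition of growth.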 The source made the active and inactive calls. Rule as the data show it: active = GI50 up to about 1.1 µM and inactive = higher.

What was measured:
Assay in all cases: NCI-60 cell line screen, 48 h
SK-OV-3 = tested on: SK-OV-3
SNB-19 = tested on: SNB-19
NCI-H460 = tested on: NCI-H460
SK-MEL-2 = tested on: SK-MEL-2
KM12 = tested on: KM12
NCI-H23 = tested on: NCI-H23
COLO 205 = tested on: COLO 205
SF-268 = tested on: SF-268
DU-145 = tested on: DU-145
IGROV-1 = tested on: IGROV-1
MDA-MB-231 = tested on: MDA-MB-231
PC-3 = tested on: PC-3
Malme-3M = tested on: Malme-3M
M14 = tested on: M14
LOX IMVI = tested on: LOX IMVI
MDA-N = tested on: MDA-N
Hs-578T = tested on: Hs-578T
SK-MEL-5 = tested on: SK-MEL-5
T47D = tested on: T47D
UACC-62 = tested on: UACC-62

Measured: GI50

O=C(NCCN1CCCCC1)c1ccc(I)cc1
inactive: SK-OV-3 > 100 µM | SNB-19 > 100 µM | NCI-H460 > 100 µM | SK-MEL-2 > 100 µM | KM12 > 100 µM | NCI-H23 > 100 µM | COLO 205 94.6 µM | SF-268 > 100 µM | DU-145 69.3 µM | IGROV-1 > 100 µM | MDA-MB-231 > 100 µM | PC-3 > 100 µM | Malme-3M > 100 µM | M14 > 100 µM | LOX IMVI > 100 µM | MDA-N > 100 µM | Hs-578T 61 µM | SK-MEL-5 33.9 µM | T47D > 100 µM

Oc1nc(S)nc2c1CN(CCCN1CCOCC1)CN2
inactive: SNB-19 > 100 µM | NCI-H460 25.9 µM | SK-MEL-2 19.9 µM | UACC-62 19.7 µM | KM12 28.2 µM | NCI-H23 22.4 µM | COLO 205 18.3 µM | SF-268 23.1 µM | DU-145 34.2 µM | IGROV-1 40.6 µM | MDA-MB-231 26.7 µM | PC-3 22.1 µM | Malme-3M 19.7 µM | M14 25.5 µM | LOX IMVI 24.7 µM | MDA-N 43.6 µM | Hs-578T > 100 µM | SK-MEL-5 31 µM | T47D 35.4 µM

CCOC(=O)C1=CC(C)(C(=O)OCC)Nc2c(nc(SC)[nH]c2=O)N1 (stereo not drawn)
inactive: SK-OV-3 > 10 µM | SNB-19 > 10 µM | NCI-H460 > 10 µM | SK-MEL-2 > 10 µM | KM12 > 10 µM | NCI-H23 > 10 µM | COLO 205 > 10 µM | SF-268 > 10 µM | DU-145 > 10 µM | IGROV-1 > 10 µM | MDA-MB-231 > 10 µM | PC-3 > 10 µM | Malme-3M > 10 µM | M14 > 10 µM | LOX IMVI > 10 µM | MDA-N > 10 µM | Hs-578T > 10 µM | SK-MEL-5 > 10 µM | T47D > 10 µM

O=C1Cc2c([nH]c3ccc(Br)cc23)-c2cc(O)c(O)cc2N1
inactive: SK-OV-3 > 100 µM | SNB-19 > 100 µM | NCI-H460 > 100 µM | SK-MEL-2 > 100 µM | UACC-62 > 100 µM | KM12 > 100 µM | NCI-H23 > 100 µM | COLO 205 > 100 µM | SF-268 > 100 µM | DU-145 > 100 µM | MDA-MB-231 > 100 µM | PC-3 > 100 µM | M14 > 100 µM | LOX IMVI > 100 µM | MDA-N > 100 µM | Hs-578T > 100 µM | T47D > 100 µM

O=[N+]([O-])c1ccc(/C=N/Nc2nc3ccccc3[nH]2)o1
inactive: SK-OV-3 33.7 µM | SNB-19 26.5 µM | NCI-H460 17.5 µM | KM12 10.6 µM | NCI-H23 16.2 µM | COLO 205 10.6 µM | SF-268 24.4 µM | DU-145 13.9 µM | IGROV-1 12.6 µM | MDA-MB-231 32.4 µM | PC-3 15.3 µM | Malme-3M 13.8 µM | M14 12.7 µM | LOX IMVI 13.9 µM | MDA-N 7.57 µM | Hs-578T 33.3 µM | SK-MEL-5 4.14 µM | T47D 13.6 µM

COCc1nc(C#N)c(N)o1
inactive: SK-OV-3 > 10 µM | SNB-19 > 10 µM | NCI-H460 > 10 µM | UACC-62 > 10 µM | KM12 > 10 µM | NCI-H23 > 10 µM | COLO 205 > 10 µM | SF-268 > 10 µM | DU-145 > 10 µM | IGROV-1 > 10 µM | MDA-MB-231 > 10 µM | PC-3 > 10 µM | Malme-3M > 10 µM | M14 > 10 µM | LOX IMVI > 10 µM | MDA-N > 10 µM | Hs-578T > 10 µM | SK-MEL-5 > 10 µM | T47D > 10 µM

CCCCn1c2c(c3ccccc3c1=O)C(=O)c1ccccc1-2
inactive: SK-OV-3 > 100 µM | SK-MEL-2 > 100 µM | UACC-62 > 100 µM | KM12 > 100 µM | NCI-H23 45.2 µM | COLO 205 20.4 µM | SF-268 29 µM | DU-145 34.5 µM | IGROV-1 76.7 µM | MDA-MB-231 94 µM | PC-3 > 100 µM | Malme-3M > 100 µM | M14 > 100 µM | LOX IMVI > 100 µM | MDA-N > 100 µM | Hs-578T 33.7 µM | SK-MEL-5 5.98 µM | T47D 16.2 µM

COc1ccc2cc(C(=O)O)ccc2c1OC
inactive: SK-OV-3 > 100 µM | SNB-19 > 100 µM | NCI-H460 > 100 µM | SK-MEL-2 > 100 µM | UACC-62 > 100 µM | KM12 > 100 µM | NCI-H23 > 100 µM | COLO 205 > 100 µM | SF-268 > 100 µM | DU-145 69.5 µM | IGROV-1 > 100 µM | MDA-MB-231 > 100 µM | PC-3 > 100 µM | Malme-3M > 100 µM | M14 > 100 µM | MDA-N > 100 µM | Hs-578T > 100 µM | SK-MEL-5 > 100 µM | T47D > 100 µM
